Reference: patent publication US7977387B2, “Aminobenzophenone compounds” (Leo Pharma A/S, priority 2003, dated 2011)

Assays:
IL-1β = test: Inhibition of IL-1β secretion in LPS stimulated peripheral blood mononuclear cells; assay type: cell-based; conditions: PBMC; LPS stimulated human peripheral blood mononuclear cells, 18 hours, ELISA; read-out: The median inhibition concentration (IC50, nM) of IL-1β
Method: (§1) To study the effect of compounds of the present invention in vitro, the inhibition of IL-1β and TNF-α secretion was determined using the following procedure:
(§2) Cytokine production was measured in the media from lipopolysaccharide (LPS) stimulated peripheral blood mononuclear cells. The mononuclear cells were isolated from human peripheral blood by Lymphoprep® (Nycomed, Norway) fractionation and suspended in RPMI 1640 (growth medium) with foetal calf serum (FCS, 2%), at a concentration of 5×10^5 cells/ml. The cells were incubated in 24-well tissue culture plates in 1 ml aliquots. Test compounds were dissolved in dimethylsulfoxide (DMSO, 10 mM) and were diluted with the medium. Compounds were added to the cells for 30 minutes, then LPS ([…] final concentration) was added. The plates were incubated for 18 hours, and the concentration of IL-β and TNF-α in the medium was determined by enzyme-linked immunosorbent assays. The median inhibitory concentrations (IC50) of the compounds were calculated.

TNF-α = test: Inhibition of TNF-α secretion in LPS stimulated peripheral blood mononuclear cells; assay type: cell-based; conditions: PBMC; LPS stimulated human peripheral blood mononuclear cells, 18 hours, ELISA; read-out: The median inhibition concentration (IC50, nM) of TNF-α
Method: as §1, §2

| IC50 (IL-1β) [nM] | IC50 (TNF-α) [nM] | SMILES |
| --- | --- | --- |
| 0.6 | 0.5 | CCOC(=O)Nc1ccc(C)c(C(=O)c2ccc(Nc3ccc(F)cc3F)cc2Cl)c1 [Compound 279, {3-[2-Chloro-4-(2,4-difluoro-phenylamino)-benzoyl]-4-methyl-phenyl}-carbamic acid ethyl ester] |
| 1.4 | 0.5 | CCC(=O)Nc1ccc(C)c(C(=O)c2ccc(Nc3ccc(F)cc3F)cc2Cl)c1 [Compound 242, N-{3-[2-Chloro-4-(2,4-difluoro-phenylamino)-benzoyl]-4-methyl-phenyl}-propionamide] |
| 8.9 | 2.2 | CCOC(=O)CNC(=O)c1ccc(OC)c(C(=O)c2ccc(Nc3c(F)cccc3F)cc2Cl)c1 [Compound 182] |
| 3.2 | 1.8 | COc1ccc(C(=O)NCCF)cc1C(=O)c1ccc(Nc2ccc(F)cc2)cc1Cl [Compound 197, 3-[2-Chloro-4-(4-fluoro-phenylamino)-benzoyl]-N-(2-fluoro-ethyl)-4-methoxy-benzamide] |
| 3.2 | 2.5 | Cc1ccc(C(=O)NCC(F)(F)C(F)(F)F)cc1C(=O)c1ccc(Nc2ccc(F)cc2F)cc1Cl [Compound 154, 3-[2-Chloro-4-(2,4-difluoro-phenylamino)-benzoyl]-4-methyl-N-(2,2,3,3,3-pentafluoro-propyl)-benzamide] |
| 2 | 1 | COCCNC(=O)c1ccc(C)c(C(=O)c2ccc(Nc3ccc(F)cc3C)cc2Cl)c1 [Compound 106, 3-[2-Chloro-4-(4-fluoro-2-methyl-phenylamino)benzoyl]-N-(2-methoxyethyl)-4-methylbenzamide] |
| 0.4 | 0.2 | C=CCNC(=O)Nc1ccc(C)c(C(=O)c2ccc(Nc3ccc(F)cc3F)cc2Cl)c1 [Compound 267, 1-Allyl-3-{3-[2-chloro-4-(2,4-difluoro-phenylamino)-benzoyl]-4-methyl-phenyl}-urea] |
| 3.2 | 3.2 | Cc1cc(F)ccc1Nc1ccc(C(=O)c2cc(C(=O)NCCCN3CCOCC3)ccc2C)c(Cl)c1 [Compound 107, 3-[2-Chloro-4-(4-fluoro-2-methylphenylamino)benzoyl]-4-methyl-N-(3-morpholin-4-yl-propyl)benzamide] |
| 1 | 0.6 | COc1ccc(C(=O)NCC(N)=O)cc1C(=O)c1ccc(Nc2ccc(F)cc2F)cc1Cl [Compound 144, N-Carbamoylmethyl-3-[2-chloro-4-(2,4-difluoro-phenylamino)-benzoyl]-4-methoxy-benzamide] |
| 1.3 | 0.5 | Cc1ccc(NC(=O)CCN2CCOCC2)cc1C(=O)c1ccc(Nc2ccc(F)cc2F)cc1Cl [Compound 244, N-{3-[2-Chloro-4-(2,4-difluoro-phenylamino)-benzoyl]-4-methyl-phenyl}-3-morpholin-4-yl-propionamide] |
| 5 | 0.3 | Cc1ccc(NC(=O)NC(C)C)cc1C(=O)c1ccc(Nc2ccc(F)cc2F)cc1Cl [Compound 275, 1-{3-[2-Chloro-4-(2,4-difluoro-phenylamino)-benzoyl]-4-methyl-phenyl}-3-isopropyl-urea] |
|  | 2.8 | O=C(c1cc(OCCCO)ccc1F)c1ccc(Nc2ccc(F)cc2F)cc1Cl [Compound 314, [2-Chloro-4-(2,4-difluoro-phenylamino)-phenyl]-[2-fluoro-5-(3-hydroxy-propoxy)-phenyl]-methanone] |
|  | 1.6 | Cc1ccc(NC(=O)Nc2cccc(C(F)(F)F)c2)cc1C(=O)c1ccc(Nc2ccc(F)cc2F)cc1Cl [Compound 263, 1-{3-[2-Chloro-4-(2,4-difluoro-phenylamino)-benzoyl]-4-methyl-phenyl}-3-(3-trifluoromethyl-phenyl)-urea] |
|  | 3.2 | Cc1ccc(NC(=O)CCc2ccco2)cc1C(=O)c1ccc(Nc2ccc(F)cc2F)cc1Cl [Compound 246, N-{3-[2-Chloro-4-(2,4-difluoro-phenylamino)-benzoyl]-4-methyl-phenyl}-3-furan-2-yl-propionamide] |
